Results on two compounds are retold here after US20130053347A1, “PRO-DRUGS OF AMARYLLIDACEAE ISOCARBOSTYRIL PRODUCTS AND THEIR USE AGAINST BRAIN TUMORS” (Universite Libre de Bruxelles, priority 2010, published 2013).

One data set has as its system cancer cells. Particulars: cited from earlier work.
The subject of data set [1] is Hs683 human glioblastoma cells grafted into the brain of nude mice. The experiment in a line: human glioblastoma orthotopic model, survival. The format is in vivo. The note with it: 1 mg/kg once or twice per week during 5 consecutive weeks, intravenous or oral; two glioblastoma models (Hs683; GL-19 in FIG. 5). As for the experimental part:
FIG. 5: anti-tumor effects of Narciclasine versus temozolomide in human primary brain tumor models. A and B: hematoxilin eosin staining of the brain tumors that developed into the brain of nude mice after intracranial graft of Hs683 and GL-19 human glioblastoma cells (NB: normal brain). Anti-tumor effects were evaluated in terms of animal survival in C and D. TMZ: temozolomide; schedule of administration is mentioned between brackets (“aXb” meaning “a” administrations per week during “b” weeks).
We evaluated the anti-cancer effects of Narciclasine at non toxic dose in two human glioblastoma (primary brain tumors) models (Hs683-model) that we grafted orthotopically directly into the brain of nude mice. […] The therapeutic schedule used here is even lower (one or two injections per week instead of 5 per week) and the administration route was intravenous or oral. […] The few promising NCI results have been obtained at doses higher than 1 mg/kg administered intraperitoneally or subcutaneously.

For data set [2] the following is noted: cited from earlier work.
Data set [3] has as its system human NSCLC A549 cells grafted into the lungs of nude mice. Briefly: NSCLC model, cells grafted into the lungs, survival. The note with it: A549 in lungs; Taxol 20 mg/kg, Narciclasine 1 mg/kg once per week during 5 consecutive weeks. The format is in vivo. As for the experimental part:
(§1) FIG. 6: anti-tumor effects of Narciclasine versus taxol in human NSCLC (non small cell lung carcinoma) models. The left panel illustrates the lungs of mice bearing lung tumor (tumor tissue is the white nodular one; pink part is the residual normal lung tissue) and hematoxilin eosin staining of the lung tumor (middle) and the brain metastasis that developed into the brain of nude mice after the graft of A549 human NSCLC cells into the lung (lower panel). Anti-tumor effects were evaluated in terms of animal survival when cells are grafted into the lungs (upper right graph) or directly into the brain (right lower panel). Taxol (dose: 20 mg/kg) and Narciclasine (dose: 1 mg/kg) were administered once per week during 5 consecutive weeks.
(§2) We tested also the anti-cancer effects of Narciclasine in non small cell lung carcinoma models (NSCLC). When human NSCLC A549 cells are grafted into the lungs of nude mice, those later develop lung tumors leading after to liver and brain metastases in 80% of the cases (Mathieu A et al, Cancer 2004).

Data set [4] concerns VM-48 human brain metastatic melanoma cells grafted into the brain of nude mice. The experiment in a line: melanoma brain metastasis model, survival. The format is in vivo. Particulars: VM-48 in brain; intravenously 1 mg/kg twice a week during 3 consecutive weeks.
The test system of the next data set is mice. Particulars: cited from earlier work.
Data set [5] concerns A549 cells grafted directly into the brain of nude mice. The experiment in a line: NSCLC cells grafted into the brain, survival. The format is in vivo, human. Particulars: A549 in brain; Taxol 20 mg/kg, Narciclasine 1 mg/kg once per week during 5 consecutive weeks. Here is the method:
as §1, §2

Data set [6] has as its system human melanoma VM-21 cells grafted subcutaneously. Briefly: subcutaneous melanoma model, survival. The format is in vivo. Particulars: VM-21 subcutaneous, nude mice; Narciclasine per os. As for the experimental part: FIG. 7: anti-tumor effects of Narciclasine in human melanoma models. The left panel illustrates typical hematoxilin eosin staining of subcutaneous tumor and lung metastasis developed when VM-21 human melanoma cells are grafted subcutaneously in nude mice and their corresponding survival analysis. Narciclasine was administered per os while dacarbazine was administered intra-peritoneally. Doses and schedules appear on the graphs (ai X bw meaning “a” administrations per week during “b” weeks). The right panel illustrates typical hematoxilin eosin staining of human melanoma brain tumor developed into the brain when VM-48 human brain metastatic melanoma cells are grafted into the brain of nude mice and their corresponding survival analysis. Narciclasine and temozolomide (TMZ) were administered per os. Doses and schedules appear on the graphs (same legend than left panel).
Similarly, we grafted subcutaneously human melanoma VM-21 cells. This graft leads to tumor formation and further lung metastases as illustrated in FIG. 7. […] VM-48 cells have been isolated from a human brain metastasis of melanoma. We grafted those cells in their original environment, i.e. the brain to mimic human melanoma brain metastasis (FIG. 7).

In the case of `O=C1N[C@@H]2C(=C[C@H](O)[C@@H](O)[C@H]2O)c2cc3c(c(O)c21)OCO3` [Narciclasine], the IC50 with cancer cells was 50 nM. The “therapeutic benefit in terms of survival” value in data set [1] is “significant and comparable therapeutic benefits”. Besides, the plasmatic concentrations in data set [2] (5 mg/kg dose, for few hours only) is more than 50 nM. For the same compound, the oral bioavailability in data set [2] (mouse, in vivo, po) is listed as 32%. Moreover, the “survival of the animals” value in data set [3] is given as “did not bring any increase in the survival”. Further, in data set [4], the animal survival result was “significant increase in terms of animal survival”. For the same compound, in the data set with mice (mice), the “maximal dose that can be administered without being toxic” value is listed as “around 1 mg/kg” and the safe chronical dose is 1 mg/kg. Further, the toxicity result in the data set with mice (rodents, 1 mg/kg 5 times per week during three weeks at least) is “without any toxicity”. For the same compound, the survival benefits result in data set [5] was “highly and significantly effective”. Besides, in data set [6], the survival benefit entry is given as “could not bring any survival benefit”.
Turning to `CC(=O)O[C@H]1C(=O)[C@@]2(C)[C@H]([C@H](OC(=O)c3ccccc3)[C@]3(O)C[C@H](OC(=O)[C@H](O)[C@@H](NC(=O)c4ccccc4)c4ccccc4)C(C)=C1C3(C)C)[C@]1(OC(C)=O)CO[C@@H]1C[C@@H]2O` [taxol], the “survival of the animals” value in data set [3] is “did significantly”. The survival benefits result in data set [5] is given as “became inefficient”.
